Like-named read-outs stand apart in the source and are kept apart here. Starred links: 1 amine or outer side, 2 acyl side, 3 side chain; linkers in the order of their positions; H or OH if unused. Positions of bridges follow the written chain, without caps; N, C: chain ends. Non-standard residues stand in square brackets, D forms with d. Residues, ends and D or L forms follow the SMILES beside them. *: point of attachment. Phe(4-(CH2)5CO) = O=C([C@H](Cc1ccc(CCCCCC(=O)[*:3])cc1)N[*:1])[*:2]; Phe(3-(CH2)4CO) = O=C([C@H](Cc1cccc(CCCCC(=O)[*:3])c1)N[*:1])[*:2]; NMePhe(3-Cl) = CN[C@@H](Cc1cccc(Cl)c1)C(=O)O; NMeF = CN[C@@H](Cc1ccccc1)C(=O)O; NMeI = CC[C@H](C)[C@H](NC)C(=O)O; NMeβAla = CN(CCC(=O)[*:2])[*:1]; NMeL = CN[C@@H](CC(C)C)C(=O)O; NMeV = CN[C@H](C(=O)O)C(C)C; NMeA = CN[C@@H](C)C(=O)O; Piperidide = C1CCN(*)CC1; dNMeA = CN[C@H](C)C(=O)O; β3hA = C[C@H](N)CC(=O)O; Sar = CNCC(=O)O; tBu = CC(C)(C)*
Tests used:
[1] = Metabolic stability in human hepatic microsome; format: in vitro ADME; conditions: microsomes
[2] = PAMPA (parallel artificial membrane permeability assay); format: in vitro ADME; conditions: PAMPA
Outline: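 Artificial membrane was 10% (w/v) egg lecithin plus 0.5% (w/v) cholesterol in dodecane on a PVDF filter. A 10 mM DMSO stock was added at 0.5% (v/v) to donor buffer (50 mM MOPSO, pH 6.5, 5.0% glycocholic acid). After 18 h at 37 °C, LC/MS or LC/UV gave donor and acceptor levels for Pe.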

[3] = pH 7.4, human hepatic microsome, NADPH(+), read-out: CL NADPH(+)
[4] = membrane permeation rate (Pe), 50 mM MOPSO buffer pH 6.5 with 5.0% glycocholic acid, 37° C., 18 hours, read-out: iPAMPA Pe

Structure (SMILES)	microsomal CLint at 1 uM [1, 3] [µL/min/mg]	Papp at 18 hours, 50 µM [2, 4] [×10⁻⁶ cm/s]	microsomal CLint at 1 uM ([1]; human, pH 7.4, CL NADPH(+)) [µL/min/mg]	Papp at 18 hours, 50 µM ([2]; pH 6.5) [×10⁻⁶ cm/s]
CC(C)[C@@H]1NC(=O)[C@H](C)N(C)C(=O)[C@H](Cc2ccccc2)N(C)C(=O)[C@H](C)N(C)C(=O)[C@H]([C@@H](C)O)NC(=O)[C@H](C)N(C)C(=O)[C@H](C)N(C)C(=O)C[C@@H](C(=O)N(C)[C@@H](Cc2ccccc2)C(=O)N(C)[C@@H](Cc2ccccc2)C(=O)N[C@@H](C)C(=O)N2CCCCC2)NC(=O)[C@H](C)N(C)C(=O)[C@H](C)N(C)C1=O [DP-460] ([NMeA][NMeA]T[NMeA][NMeF][NMeA]V[NMeA][NMeA]D[NMeF][NMeF]A-Piperidide; lactam N-10)	17	5.1		
CC(C)C[C@H]1C(=O)N(C)[C@@H](CC(C)C)C(=O)N[C@@H](C)C(=O)N(C)[C@@H](CC(C)C)C(=O)N(C)[C@@H](Cc2ccccc2)C(=O)N(C)[C@@H](Cc2ccccc2)C(=O)N[C@@H]([C@@H](C)O)C(=O)N(C)[C@@H](C)C(=O)N(C)[C@@H](CC(C)C)C(=O)N[C@H](C(=O)N2CCCCC2)Cc2ccc(cc2)CCCCCC(=O)N1C [DP-858] ([NMeL][NMeL]A[NMeL][NMeF][NMeF]T[NMeA][NMeL][Phe(4-(CH2)5CO)]-Piperidide; lactam N-10)	77	1		
CC(C)C[C@H]1C(=O)N[C@@H](COC(C)(C)C)C(=O)N[C@@H](C)CC(=O)N[C@H](C)C(=O)N(C)[C@@H](C)C(=O)N(C)[C@@H](Cc2ccccc2)C(=O)N(C)[C@@H](CC(C)C)C(=O)N[C@@H]([C@@H](C)O)C(=O)N(C)[C@@H](C)C(=O)N1C [DP-787] (cyclo([NMeA][NMeF][NMeL]T[NMeA][NMeL]S(tBu)[β3hA][dA]))	33	29		
CC(C)C[C@@H]1NC(=O)[C@@H](C(C)C)NC(=O)C[C@@H](C(=O)N2CCCCC2)NC(=O)[C@H](Cc2ccccc2)NC(=O)[C@H](CC(C)C)N(C)C(=O)[C@H](Cc2ccccc2)N(C)C(=O)[C@H](C)N(C)C(=O)[C@H]([C@@H](C)O)NC1=O [DP-702] ([dV]LT[NMeA][NMeF][NMeL]FD-Piperidide; lactam N-8)	123	25		
CC[C@H](C)[C@H]1C(=O)NCC(=O)N(C)[C@@H](Cc2cccc(Cl)c2)C(=O)N[C@@H]([C@@H](C)O)C(=O)N(C)[C@@H](CC(C)C)C(=O)N[C@@H](CC(C)C)C(=O)N[C@@H](C)CC(=O)N(C)[C@H](C)C(=O)N(C)[C@@H](CC(C)C)C(=O)N[C@@H](Cc2ccccc2)C(=O)N(C)[C@@H](CC(C)C)C(=O)N[C@@H](C(C)C)C(=O)N1C [DP-762] (cyclo(F[NMeL]V[NMeI]G[NMePhe(3-Cl)]T[NMeL]L[β3hA][dNMeA][NMeL]))			81	13
CC[C@H](C)[C@@H]1NC(=O)[C@H](C)N(C)C(=O)[C@H]([C@@H](C)O)NC(=O)[C@H](C(C)C)N(C)C(=O)[C@H](CC(C)C)NC(=O)[C@H](CC(C)C)N(C)C(=O)[C@@H](C)N(C)C(=O)C[C@@H](C(=O)N2CCCCC2)NC(=O)[C@H](Cc2ccccc2)NC(=O)[C@H](C)NC(=O)[C@H](Cc2ccccc2)N(C)C1=O [DP-242] ([dNMeA][NMeL]L[NMeV]T[NMeA]I[NMeF]AFD-Piperidide; lactam N-11)	43	29		
CC(C)C[C@H]1C(=O)N[C@@H](COC(C)(C)C)C(=O)N[C@H](C(=O)N2CCCCC2)CC(=O)N[C@H](C)C(=O)N(C)[C@@H](Cc2ccccc2)C(=O)N(C)[C@@H](CC(C)C)C(=O)N[C@@H]([C@@H](C)O)C(=O)N(C)[C@@H](C)C(=O)N1C [DP-529] ([dA][NMeF][NMeL]T[NMeA][NMeL]S(tBu)D-Piperidide; lactam N-8)	100	23		
CC[C@H](C)[C@H]1C(=O)NCC(=O)N[C@@H](C)CC(=O)N(C)[C@H](C)C(=O)N[C@@H](Cc2ccccc2)C(=O)N(C)[C@@H](CC(C)C)C(=O)N[C@@H](COC(C)(C)C)C(=O)N[C@@H](Cc2ccccc2)C(=O)N2CCC[C@H]2C(=O)N[C@@H]([C@@H](C)O)C(=O)N[C@@H](CC(C)C)C(=O)N1C [DP-815] (cyclo(F[NMeL]S(tBu)FPTL[NMeI]G[β3hA][dNMeA]))			104	42
CC[C@H](C)[C@@H]1NC(=O)[C@H](C)N(C)C(=O)C[C@@H](C(=O)N(C)[C@@H](Cc2ccccc2)C(=O)N[C@@H](C)C(=O)N2CCCCC2)NC(=O)[C@H](CC(C)C)N(C)C(=O)[C@H](CC(C)C)NC(=O)[C@@H]2CCCN2C(=O)CNC(=O)[C@H](CC(C)C)N(C)C(=O)[C@H](Cc2ccccc2)N(C)C(=O)[C@H](Cc2ccccc2)NC(=O)[C@H]([C@@H](C)O)NC1=O [DP-280] ([NMeA]ITF[NMeF][NMeL]GPL[NMeL]D[NMeF]A-Piperidide; lactam N-11)			28	21
CC(C)C[C@H]1C(=O)NCC(=O)N[C@H](C(=O)N2CCCCC2)CC(=O)N[C@H](C)C(=O)N[C@@H]([C@@H](C)O)C(=O)N(C)[C@@H](C)C(=O)N(C)[C@@H](Cc2ccccc2)C(=O)N[C@@H](COC(C)(C)C)C(=O)N(C)[C@@H](Cc2ccccc2)C(=O)N1C [DP-52] ([dA]T[NMeA][NMeF]S(tBu)[NMeF][NMeL]GD-Piperidide; lactam N-9)			136	23
CC(C)C[C@H]1C(=O)N(C)[C@@H](CC(C)C)C(=O)N[C@H](C(=O)N(C)[C@@H](Cc2ccccc2)C(=O)N[C@@H](C)C(=O)N2CCCCC2)CC(=O)N(C)[C@@H](C)C(=O)N[C@@H](C(C)C)C(=O)N(C)[C@@H](Cc2ccccc2)C(=O)N(C)CC(=O)N[C@@H]([C@@H](C)O)C(=O)N(C)[C@@H](C)C(=O)N1C [DP-310] ([NMeA]V[NMeF][Sar]T[NMeA][NMeL][NMeL]D[NMeF]A-Piperidide; lactam N-9)			143	35
CC(C)C[C@H]1C(=O)N(C)[C@@H](CC(C)C)C(=O)N[C@@H]([C@@H](C)O)C(=O)N(C)[C@@H](C)C(=O)N[C@H](C(=O)N(C)[C@@H](Cc2ccccc2)C(=O)N(C)[C@@H](Cc2ccccc2)C(=O)N[C@@H](C)C(=O)N2CCCCC2)CC(=O)N(C)CCC(=O)N(C)CC(=O)N(C)[C@@H](Cc2ccccc2)C(=O)N[C@@H](C)C(=O)N1C [DP-398] ([NMeβAla][Sar][NMeF]A[NMeL][NMeL]T[NMeA]D[NMeF][NMeF]A-Piperidide; lactam N-9)	123	24		
CNC(=O)CC[C@@H]1NC(=O)[C@H](CC(C)C)N(C)C(=O)[C@H](C)N(C)C(=O)[C@H](CC(C)C)N(C)C(=O)[C@H](Cc2ccccc2)NC(=O)[C@H](Cc2ccccc2)N(C)C(=O)[C@H](CC(C)C)NC(=O)[C@H](CC(C)C)N(C)C(=O)[C@H](C)N(C)C(=O)[C@@H](C(C)C)NC(=O)C[C@@H](C(=O)N2CCCCC2)NC1=O [DP-626] ([dV][NMeA][NMeL]L[NMeF]F[NMeL][NMeA][NMeL]E(NHMe)D-Piperidide; lactam N-11)	28	36		
CC[C@H](C)[C@H]1C(=O)N[C@@H](Cc2ccccc2)C(=O)N(C)[C@@H](Cc2ccccc2)C(=O)N[C@@H]([C@@H](C)O)C(=O)N2CCC[C@H]2C(=O)N[C@@H](CC(C)C)C(=O)N[C@H](C(=O)N2CCCCC2)Cc2cccc(c2)CCCCC(=O)N[C@@H](C(C)C)C(=O)N(C)CC(=O)N[C@@H](CC(C)C)C(=O)N(C)[C@@H](CC(C)C)C(=O)N[C@@H](C)C(=O)N1C [DP-896] (V[Sar]L[NMeL]A[NMeI]F[NMeF]TPL[Phe(3-(CH2)4CO)]-Piperidide; lactam N-12)	57	13		
CC(C)C[C@@H]1NC(=O)[C@H](CC(C)C)N(C)C(=O)C[C@@H](C(=O)N2CCCCC2)NC(=O)[C@H](CC(C)C)N(C)C(=O)[C@H](C)N(C)C(=O)[C@H]([C@@H](C)O)NC(=O)[C@H](CC(C)C)N(C)C(=O)[C@H](Cc2ccccc2)N(C)C(=O)[C@H](Cc2c[nH]cn2)NC(=O)[C@H](Cc2ccccc2)N(C)C(=O)[C@H](CC(C)C)N(C)C1=O [DP-906] ([NMeL]L[NMeL][NMeF]H[NMeF][NMeL]T[NMeA][NMeL]D-Piperidide; lactam N-11)	49	0.65		
CC(C)C[C@H]1C(=O)N[C@@H](COC(C)(C)C)C(=O)N(C)[C@@H](Cc2ccccc2)C(=O)N(C)[C@@H](C)C(=O)N[C@@H](Cc2ccccc2)C(=O)N(C)[C@@H](C(C)C)C(=O)N[C@H](C(=O)N2CCCCC2)Cc2ccc(cc2)CCCCCC(=O)N[C@@H]([C@@H](C)O)C(=O)NCC(=O)N1C [DP-848] (TG[NMeL]S(tBu)[NMeF][NMeA]F[NMeV][Phe(4-(CH2)5CO)]-Piperidide; lactam N-9)	148	30		
CC(C)C[C@H]1C(=O)NCC(=O)N(C)[C@@H](C(C)C)C(=O)N[C@@H]([C@@H](C)O)C(=O)N[C@@H](Cc2ccccc2)C(=O)N[C@H](C(=O)N(C)[C@@H](Cc2ccccc2)C(=O)N(C)[C@@H](Cc2ccccc2)C(=O)N[C@@H](C)C(=O)N2CCCCC2)CC(=O)N(C)CCC(=O)N(C)[C@@H](C(C)C)C(=O)N[C@@H](C(C)C)C(=O)N(C)[C@@H](Cc2ccccc2)C(=O)N1C [DP-390] ([NMeβAla][NMeV]V[NMeF][NMeL]G[NMeV]TFD[NMeF][NMeF]A-Piperidide; lactam N-10)	52	3.5		
CC[C@H](C)[C@@H]1NC(=O)[C@H](CC(C)C)N(C)C(=O)[C@H](Cc2ccccc2)N(C)C(=O)[C@H](Cc2ccccc2)NC(=O)[C@H](C)N(C)C(=O)[C@H](CC(C)C)N(C)C(=O)[C@@H](C(C)C)NC(=O)C[C@@H](C(=O)N(C)[C@@H](CC(C)C)C(=O)N[C@H](C(=O)N(C)[C@@H](C)C(=O)N[C@H](C(=O)N2CCCCC2)[C@@H](C)CC)C(C)C)NC(=O)[C@H](CC(C)C)NC(=O)[C@H]([C@@H](C)O)NC1=O [DP-947] ([dV][NMeL][NMeA]F[NMeF][NMeL]ITLD[NMeL]V[NMeA]I-Piperidide; lactam N-10)	14	0.1		

Reference: patent publication US9409952B2, “Peptide-compound cyclization method” (Chugai Seiyaku Kabushiki Kaisha, priority 2011, dated 2016)
